In ChEMBL document CHEMBL1153898, “Indolyl-pyrrolone as a new scaffold for Pim1 inhibitors” (Bioorg Med Chem Lett, 2009):
Calls of active or inactive are those of the source. The calls are words filed in the database; no cut-off is given here.

Tests used:
[1] = biological target: T1, Serine/threonine-protein kinase pim-1 (Homo sapiens, UniProt P11309); test: Inhibition of human recombinant Pim1 expressed in insect cells at 100 uM
Target sequence in this assay (P11309 whole entry, looked up): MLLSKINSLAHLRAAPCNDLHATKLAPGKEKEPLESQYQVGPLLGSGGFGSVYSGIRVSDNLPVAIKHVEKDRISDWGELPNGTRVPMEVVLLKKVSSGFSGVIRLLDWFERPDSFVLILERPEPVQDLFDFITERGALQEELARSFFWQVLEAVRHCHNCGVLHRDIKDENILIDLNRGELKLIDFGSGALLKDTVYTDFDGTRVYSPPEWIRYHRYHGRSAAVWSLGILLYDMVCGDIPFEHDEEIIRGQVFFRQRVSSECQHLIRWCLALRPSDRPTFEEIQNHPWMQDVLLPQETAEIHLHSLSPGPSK

[2] = biological target: T1, Serine/threonine-protein kinase pim-1; test: Inhibition of human recombinant Pim1 expressed in insect cells by HTRF
Target sequence in this assay (P11309 whole entry): as the sequence (P11309 whole entry, looked up) above

[3] = biological target: T1, Serine/threonine-protein kinase pim-1; test: Inhibition of recombinant Pim1 by scintillation counter
Target sequence in this assay (P11309 whole entry, looked up): as above

[4] = biological target: T1, Serine/threonine-protein kinase pim-1; test: Inhibition of recombinant Pim1 with increasing concentration of ATP
Target sequence in this assay (P11309 whole entry, looked up): as above

[5] = tested on: PC-3; test: Antiproliferative activity against human PC3 cells assessed as reduction in cell number after 72 hrs; assay type: functional, cell-based; conditions: PC-3, 72 h
[6] = tested on: PC-3; test: Cell cycle arrest in human PC3 cells assessed as accumulation at G2 phase at 10 uM after 72 hrs by cytofluorimetric assay; assay type: functional
[7] = tested on: LNCaP; test: Cell cycle arrest in human LNCAP cells assessed as accumulation at G2 phase at 10 uM after 72 hrs by cytofluorimetric assay; assay type: functional
[8] = tested on: LNCaP; test: Antiproliferative activity against human LNCAP cells assessed as reduction in cell number after 72 hrs; assay type: functional, cell-based
[9] = tested on: LNCaP; test: Cell cycle arrest in human LNCAP cells assessed as accumulation at S phase at 10 uM after 72 hrs by cytofluorimetric assay; assay type: functional
[10] = tested on: PC-3; test: Cell cycle arrest in human PC3 cells assessed as accumulation at G1 phase at 10 uM after 72 hrs by cytofluorimetric assay; assay type: functional
[11] = tested on: LNCaP; test: Cell cycle arrest in human LNCAP cells assessed as accumulation at G1 phase at 10 uM after 72 hrs by cytofluorimetric assay; assay type: functional
[12] = tested on: PC-3; test: Cell cycle arrest in human PC3 cells assessed as accumulation at S phase at 10 uM after 72 hrs by cytofluorimetric assay; assay type: functional

inhibition [1] [%]	ID50 [3] [µM]	Ki [2] [µM]	Activity [4]	SMILES	other results
75				O/N=C/c1ccccc1OCC(O)Cn1c2ccccc2c2ccccc21 (stereo unspecified)	IC50 [2]: 16 µM
1				CC(=O)Nc1ccc(-c2csc(-c3c[nH]c4ccccc34)n2)cc1	
71	12	4.2	Active	CCOc1ccc(C2C(C(C)=O)=C(O)C(=O)N2CCc2c[nH]c3ccccc23)cc1 (stereo unspecified)	
92	5.2	2.2	Active	CC(=O)C1=C(O)C(=O)N(CCc2c[nH]c3ccccc23)C1c1ccc(O)cc1 (stereo unspecified)	
				CN(C)CCCn1cc(C2=C(c3cn(C)c4ccccc34)C(=O)NC2=O)c2ccccc21	IC50 [2]: 0.15 µM
84	19		Active	CC(=O)C1=C(O)C(=O)N(CCc2c[nH]c3ccccc23)C1c1cccc(O)c1 (stereo unspecified)	
90	9.5	4.5	Active	COc1cc(C2C(C(C)=O)=C(O)C(=O)N2CCc2c[nH]c3ccccc23)ccc1O (stereo unspecified)	
54	10		Active	CC(=O)C1=C(O)C(=O)N(CCc2c[nH]c3ccccc23)C1c1ccc(C)cc1 (stereo unspecified)	
-4				C/C(=C/c1sc2ccccc2[n+]1CCO)C/C=C1/Sc2ccccc2N1CCO	
57	13		Active	COC(=O)c1ccc(C2C(C(C)=O)=C(O)C(=O)N2CCc2c[nH]c3ccccc23)cc1 (stereo unspecified)	
30				CN1C2C=C(N(CCc3c[nH]c4ccccc34)C(=O)c3ccc(Cl)cc3)CCC1CC2 (stereo unspecified)	IC50 [2]: 2.1 µM
79	4.5	2.1	Active	CCc1ccc(C2C(C(C)=O)=C(O)C(=O)N2CCc2c[nH]c3ccccc23)cc1 (stereo unspecified)	IC50 [5]: 10.1 µM; Activity [6]: 14.94%; Activity [7]: 25.61%; IC50 [8]: 10.6 µM; Activity [9]: 34.92%; Activity [10]: 64.24%; Activity [11]: 39.47%; Activity [12]: 20.81%

SMILES	inhibition [1] [%]	ID50 [3] [µM]	Ki [2] [µM]	Activity [4]	other results
CC(Cc1ccccc1)NC(=O)C(c1ccc(N)cc1)c1ccc(N)cc1 (stereo unspecified)	-7				
